From patent US9428492B2, “Secondary alcohol substituted triazoles as PDE10 inhibitors” (Merck Sharp & Dohme Corp., priority 2012, dated 2016) come the findings set out here.

Where two headings read alike, the source gives them in different places. Some results are limits rather than exact numbers.

Data set [1] addresses human PDE10A2 (Homo sapiens (Human), UniProt Q9Y233). The data set can be described thus: PDE10 fluorescence polarization (IMAP FP) inhibition assay. Type of data set: biochemical. The procedure: The activity of the compounds in accordance with the present invention as PDE10 inhibitors may be readily determined without undue experimentation using a fluorescence polarization (FP) methodology that is well known in the art (Huang, W., et al., J. Biomol Screen, 2002, 7: 215).
In a typical experiment the PDE10 inhibitory activity of the compounds of the present invention was determined in accordance with the following experimental method. PDE10A2 was amplified from human fetal brain cDNA (Clontech, Mountain View, Calif.) using a forward primer corresponding to nucleotides 56-77 of human PDE10A2 (Accession No. AF127480, Genbank Identifier 4894716), containing a Kozak consensus sequence, and a reverse primer corresponding to nucleotides 2406-2413 of human PDE10A2 (Accession No. AF127480, Genbank Identifier 4894716). Amplification with Easy-A polymerase (Stratagene, La Jolla, Calif.) was 95° C. for 2 minutes followed by thirty three cycles of 95° C. for 40 seconds, 55° C. for 30 seconds, and 72° C. for 2 minutes 48 seconds. Final extension was 72° C. for 7 minutes. The PCR product was TA cloned into pcDNA3.2-TOPO (Invitrogen, Carlsbad, Calif.) according to standard protocol. AD293 cells with 70-80% confluency were transiently transfected with human PDE10A2/pcDNA3.2-TOPO using Lipofectamine 2000 according to manufacturer specifications (Invitrogen, Carlsbad, Calif.). Cells were harvested 48 hours post-transfection and lysed by sonication (setting 3, 10×5 sec pulses) in a buffer containing 20 mM HEPES, 1 mM EDTA and protease inhibitor cocktail (Roche). Lysate was collected by centrifugation at 75,000×g for 20 minutes. Supernatant containing the cytoplasmic fraction was used for evaluation of PDE10A2 activity. The fluorescence polarization assay for cyclic nucleotide phosphodiesterases was performed using an IMAP® FP kit supplied by Molecular Devices, Sunnyvale, Calif. (product # R8139). IMAP® technology has been applied previously to phosphodiesterase assays (Huang, W., et al., J. Biomol Screen, 2002, 7: 215). Assays were performed at room temperature in 384-well microtiter plates with an incubation volume of 20.2 μL. Solutions of test compounds were prepared in DMSO and serially diluted with DMSO to yield 8 μL of each of 10 solutions differing by 3-fold in concentration, at 32 serial dilutions per plate. […] 0% of inhibition is determined by using DMSO (1% final concentrations).
A Labcyte Echo 555 (Labcyte, Sunnyvale, Calif.) is used to dispense 200 nL from each well of the titration plate to the 384 well assay plate. A solution of enzyme (1/1600 dilution from aliquots; sufficient to produce 20% substrate conversion) and a separate solution of FAM-labeled cAMP PDE from Molecular Devices (product # R7506), at a final concentration of 50 nM are made in the assay buffer (10 mM Tris HCl, pH 7.2, 10 mM MgCl2, 0.05% NaN3 0.01% Tween-20, and 1 mM DTT). The enzyme and the substrate are then added to the assay plates in two consecutive additions of 10 μL, and then shaken to mix. The reaction is allowed to proceed at room temperature for 30 minutes. […] The enzymatic reaction is stopped by addition of 60 μL of the binding solution to each well of the assay plates and the plates are sealed and shaken for 10 seconds. The plate was incubated at room temperature for at least one hour prior to determining the fluorescence polarization (FP). The parallel and perpendicular fluorescence of each well of the plate was measured using a Perkin Elmer EnVision™ plate reader (Waltham, Mass.).
Fluorescence polarization (mP) was calculated from the parallel (S) and perpendicular (P) fluorescence of each sample well and the analogous values for the median control well, containing only substrate (So and Po), using the following equation: Polarization (mP)=1000*(S/So−P/Po)/(S/So+P/Po).
Dose-inhibition profiles for each compound were characterized by fitting the mP data to a four-parameter equation given below.

For data set [2], the target named is CYP2C9 (Homo sapiens (Human), UniProt P11712). Put plainly: reversible inhibition of CYP2C9. The class given is in vitro ADME.
Sequence of CYP2C9 (P11712 whole entry): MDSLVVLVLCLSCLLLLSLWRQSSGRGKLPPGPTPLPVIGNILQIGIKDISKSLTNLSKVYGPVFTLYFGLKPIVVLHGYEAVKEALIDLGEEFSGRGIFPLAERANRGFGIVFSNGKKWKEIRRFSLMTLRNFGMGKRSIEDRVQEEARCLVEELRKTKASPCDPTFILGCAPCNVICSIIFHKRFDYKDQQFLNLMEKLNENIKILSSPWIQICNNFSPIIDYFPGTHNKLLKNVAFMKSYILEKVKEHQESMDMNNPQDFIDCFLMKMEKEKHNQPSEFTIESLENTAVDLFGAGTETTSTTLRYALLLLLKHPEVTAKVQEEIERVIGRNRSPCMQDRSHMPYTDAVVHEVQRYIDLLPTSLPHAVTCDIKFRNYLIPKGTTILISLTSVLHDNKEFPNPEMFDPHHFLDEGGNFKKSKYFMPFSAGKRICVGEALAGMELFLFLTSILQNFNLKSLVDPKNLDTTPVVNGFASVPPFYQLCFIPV
The target of data set [3] is CYP3A4 (Homo sapiens (Human), UniProt P08684). The data set can be described thus: time-dependent inhibition (TDI) of CYP3A4. Type of data set: in vitro ADME. The settings on record: for time-dependent inhibition (TDI) of the CYP3A4 enzyme: result in words.
Sequence of CYP3A4 (P08684 whole entry): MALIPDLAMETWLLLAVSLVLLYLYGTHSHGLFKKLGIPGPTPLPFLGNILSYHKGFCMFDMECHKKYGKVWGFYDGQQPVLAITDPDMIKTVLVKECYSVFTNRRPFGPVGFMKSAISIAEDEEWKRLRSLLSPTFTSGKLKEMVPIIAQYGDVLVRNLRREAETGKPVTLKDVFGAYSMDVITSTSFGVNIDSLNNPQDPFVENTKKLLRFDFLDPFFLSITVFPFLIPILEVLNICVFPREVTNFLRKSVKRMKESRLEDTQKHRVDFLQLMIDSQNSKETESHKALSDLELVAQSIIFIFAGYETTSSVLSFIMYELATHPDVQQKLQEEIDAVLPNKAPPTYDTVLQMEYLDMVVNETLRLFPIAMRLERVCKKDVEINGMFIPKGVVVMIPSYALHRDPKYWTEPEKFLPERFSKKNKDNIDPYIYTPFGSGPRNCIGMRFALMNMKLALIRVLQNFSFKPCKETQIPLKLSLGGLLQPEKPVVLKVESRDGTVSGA
[4] abbreviates: comparison table with Compounds A, B, C, read-out: PDE10 Ki.

Sequence of human PDE10A2 (Q9Y233 267-1055): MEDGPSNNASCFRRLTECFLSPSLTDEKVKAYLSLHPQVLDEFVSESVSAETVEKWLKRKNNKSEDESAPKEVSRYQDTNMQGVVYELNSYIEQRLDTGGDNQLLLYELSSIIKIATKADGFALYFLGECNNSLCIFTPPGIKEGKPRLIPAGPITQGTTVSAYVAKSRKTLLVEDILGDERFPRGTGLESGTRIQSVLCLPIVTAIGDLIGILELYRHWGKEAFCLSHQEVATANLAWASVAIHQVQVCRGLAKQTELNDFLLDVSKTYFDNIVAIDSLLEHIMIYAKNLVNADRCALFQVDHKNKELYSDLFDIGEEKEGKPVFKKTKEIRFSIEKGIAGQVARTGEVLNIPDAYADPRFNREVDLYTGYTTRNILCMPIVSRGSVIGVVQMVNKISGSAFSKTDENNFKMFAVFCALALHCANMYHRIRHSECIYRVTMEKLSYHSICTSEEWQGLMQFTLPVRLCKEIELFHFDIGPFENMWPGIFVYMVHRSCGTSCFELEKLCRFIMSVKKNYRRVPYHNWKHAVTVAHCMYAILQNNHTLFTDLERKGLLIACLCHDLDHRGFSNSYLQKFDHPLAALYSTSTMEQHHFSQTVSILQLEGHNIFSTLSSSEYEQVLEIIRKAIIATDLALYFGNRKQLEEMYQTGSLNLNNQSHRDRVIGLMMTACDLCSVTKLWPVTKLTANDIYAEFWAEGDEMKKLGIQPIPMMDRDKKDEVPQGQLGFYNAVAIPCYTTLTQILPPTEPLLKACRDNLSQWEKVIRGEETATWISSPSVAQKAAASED

For `Cc1nc(N2CC(c3nc4ccccc4n3C)C2)cc(-n2nc(C)nc2C(O)C(F)(F)F)n1` (single isomer, unassigned) [Example 3b, 2,2,2-trifluoro-1-(3-methyl-1-(2-methyl-6-(3-(1-methyl-1H-benzo[d]imidazol-2-yl)azetidin-1-yl)pyrimidin-4-yl)-1H-1,2,4-triazol-5-yl)ethanol], the Ki in data set [1] (setting [4]) and in data set [1] (read-out: PDE10a Ki) was 0.06 nM throughout. In data set [2], the IC50 is greater than 50000 nM. Moreover, in data set [3], the “TDI CYP3A4 shift ratio” value was 1. The “time-dependent inhibition (TDI) of the CYP3A4 enzyme” value (shortened to “time-dependent inhibition (TDI)”) in data set [3] was “do not exhibit TDI of CYP3A4”.

Turning to `Cc1nc(N2CC(c3nc4ccccc4n3C)C2)cc(-n2nc(C)nc2[C@@H](C)O)n1` [Example 2, (R)-1-(3-methyl-1-(2-methyl-6-(3-(1-methyl-1H-benzo[d]imidazol-2-yl)azetidin-1-yl)pyrimidin-4-yl)-1H-1,2,4-triazol-5-yl)ethanol], the Ki in data set [1] (setting [4]) and in data set [1] (read-out: PDE10a Ki) was 1.2 nM in each case. Also, in data set [2], the IC50 was greater than 50000 nM. Besides, the “TDI CYP3A4 shift ratio” value in data set [3] was 1. Moreover, in data set [3], the “time-dependent inhibition (TDI)” value is “do not exhibit TDI of CYP3A4”.

Consider `Cc1nc([C@@H]2C[C@H]2c2nc3ccccc3n2C)cc(-n2nc(C)nc2[C@H](C)O)n1` [Example 13, (S)-1-(3-methyl-1-(2-methyl-6-((1R,2R)-2-(1-methyl-1H-benzo[d]imidazol-2-yl)cyclopropyl)pyrimidin-4-yl)-1H-1,2,4-triazol-5-yl)ethanol], for which the Ki in data set [1] (setting [4]) turned out to be 0.74 nM. Also, the inhibitory constant (Ki) in data set [1] (read-out: PDE10a Ki) turned out to be 0.74 nM. Also, the IC50 in data set [2] was greater than 50000 nM. Moreover, in data set [3], the “TDI CYP3A4 shift ratio” value is given as 1 and the “time-dependent inhibition (TDI)” value is on record as “do not exhibit TDI of CYP3A4”.

As to `Cc1nc(N2CC(c3nc4ccccc4n3C)C2)cc(-n2nc(C)nc2C(O)C2CC2)n1` (single isomer, unassigned) [Example 6a, cyclopropyl(3-methyl-1-(2-methyl-6-(3-(1-methyl-1H-benzo[d]imidazol-2-yl)azetidin-1-yl)pyrimidin-4-yl)-1H-1,2,4-triazol-5-yl)methanol], in data set [1] (setting [4]), the Ki was 0.17 nM. Also, the inhibitory constant (Ki) in data set [1] (read-out: PDE10a Ki) came to 0.17 nM. In data set [2], this compound returned an IC50 greater than 50000 nM. For the same compound, in data set [3], the “TDI CYP3A4 shift ratio” value is 1 and the “time-dependent inhibition (TDI)” value was “do not exhibit TDI of CYP3A4”.
